Data published in patent US9682140B2, “Ezrin-derived peptides and pharmaceutical compositions thereof” (priority 2016, dated 2017).

Assays:
[1] = test system: encephalomyocarditis virus; assay: Antiviral (interferon-inducing) activity in culture of PLC/PRF/5 (Alexander) human hepatoma cell line; assay type: cell-based, encephalomyocarditis virus strain Columbia SK-Col-SK; conditions: for Antiviral efficacy (minimal compound concentration protecting 50% of the cells from death) / Titre of induced interferon (inverse to the maximal dilution protecting 50% of the cells): PLC/PRF/5 (Alexander) human hepatoma cells, 100 LD50 of encephalomyocarditis virus
Description: (§1) In this methodology in vitro, we pretreated different types of cells with the studied peptides, and then the cells were infected with a dose of 100 LD50 of encephalomyocarditis virus. 24 hours after the infection the cytopathic effect of the virus was assessed in order to evaluate protective activity of the tested compound if the latter has the ability to bring the cells to a state, resistant to the virus, which is deadly for cells.
(§2) The lower is the concentration which protects 50% of cells from death due to the infection at a dose of 100 LD50 of encephalomyocarditis virus, the higher is antiviral (interferon-inducing) activity of the tested compound.
PLC/PRF/5 (Alexander) human hepatoma cell line was obtained from Research Institute of Virology named after Ivanovskiy (Moscow). Complete medium for cells culturing was prepared on the basis of MEM Eagle medium supplemented with 10% fetal calf serum (FCS), L-glutamine (300 μg/ml), and penicillin (100 U/ml).
(§3) The peptides were dissolved in distilled water, and then sterilized by passing through filters with pore size 0.2 μm to obtain the stock solutions of 1-2 mg/ml. On day 0, cells were seeded in the wells of 96-well plate in complete culture medium with cell density of 200 thousands of cells in 1 ml. On day 1, serial dilutions of each tested sample were prepared (24 serial dilutions in increments of 2) in triplets in the wells of the 96-well plate. On day 3, all the cultures were infected with a dose of 100 TCID50/ml of encephalomyocarditis virus strain “Columbia SK-Col-SK”. Finally, on day 4, cytopathic effect of the virus was assessed by using Leitz inverted microscope in the presence of different concentrations of the tested peptide or in the cultures without peptide (control).
(§4) Antiviral effect of the drug product was assessed based on minimal concentration thereof protecting 50% of the cells from death caused by encephalomyocarditis virus at a dose of 100 TCID50/ml. Interferon titre (U/ml) was calculated as a value, inverse to the maximal dilution of the drug product, which protected 50% of the cells from death caused by encephalomyocarditis virus at a dose of 100 TCID50/ml.

[2] = test system: encephalomyocarditis virus; assay: Antiviral (interferon-inducing) activity in culture of HELA human cervical carcinoma cell line; assay type: cell-based; conditions: 100 LD50 of encephalomyocarditis virus
Description: as §1, §2, §3, §4
(§5) HELA human cervical carcinoma cell line was obtained from Research Institute of Virology named after Ivanovskiy (Moscow). Complete medium for cells culturing, peptides and compositions thereof, as well as assessment method for their antiviral (interferon-inducing) activity were the same as described in the Example 5.

[3] = test system: encephalomyocarditis virus; assay: Antiviral (interferon-inducing) activity in culture of Girardi Heart human epithelial cell line; assay type: cell-based; conditions: for Antiviral efficacy (minimal compound concentration protecting 50% of the cells from death) / Titre of induced interferon (inverse to the maximal dilution protecting 50% of the cells): Girardi Heart epithelial cells, 100 LD50 of encephalomyocarditis virus
Description: as §1, §2, §3, §4
as §5, with “The culture of Girardi Heart” for “HELA”, “epithelial” for “cervical carcinoma”

[4] = test system: MAPK/ERK signaling pathway; assay: Activation of MAPK/ERK signaling pathway in BALB/c mouse fibroblasts (immune blotting of phospho-p44/42 MAPK); assay type: cell-based
Description: Peptide […] (SEQ ID No: 1) was obtained as described in Example 1, BALB/c mouse fibroblast were purchased from American Type Culture Collection and propagated in a complete medium consisting of high glucose DMEM supplemented with 10% fetal calf serum, 1 mM sodium pyruvate, 1:50 MEM non-essential amino acids, 2 mM L-glutamine, 10 μg/ml gentamicin and 50 μM β-mercaptoethanol. Cells were grown in 10 cm culture dishes at 5% CO2 and 37° C. Cell passages were made at the 50-60% confluency. For cell detachment, 0.05% trypsin/EDTA was used with following centrifugation (470×g, 15 min) in 10-fold volume of washing medium containing 10% FCS to quench trypsin. Supernatant was discarded and the cell pellet was suspended in 10 ml of complete culture medium, then cell numbers were counted using hemocytometer before cells were used for experiments.
Fibroblasts were cultured in 8-well culture plates, the examined peptide or cytokine TGF-β1 (positive control) solution, or equivalent volume of culture medium (negative control) were added into respective triplicate cultures. Cells were incubated in presence of the peptide […] SEQ ID No: 1 (10 μg/ml) or TGF-β1, or without any effector compound during 1 or 6 hours at 5% C02 and 37° C. At the time points indicated, cell were harvested, washed twice with PBS and lyzed using the cell extraction buffer in the presence of protease inhibitors during 30 min at 4° C. Extracts were cleared by centrifugation (14,000×g, 10 min, 4° C.). Protein concentration was measured using protein assay reagent (Pierce, 23225). Appropriate dilutions of extracts ([…] protein per a track) were then fractionated in 8% SDS-PAGE and then transferred onto PVDF-membrane (Amersham) for immune blotting. Targeted proteins were detected using antibodies specific to phospho-p44/42 MAPK (Cell Signaling, 4370) and GAPDH (Abcam ab8245). Protein bands were visualized and then measured their intensities using ImageJ soft-ware. Data were expressed as a value (pixels per a band) of ERK1, ERK2 or phospho-ERK1 and phospho-ERK2 normalized to a value of respective GAPDH-bands. Mean values+SD were calculated using the data of 3 independent runs.

[5] = 1 hour after activation, peptide 10 μg/ml, TGF-β1 5 ng/ml, negative control 0.1+0.002
[6] = 1 hour after activation, peptide 10 μg/ml, TGF-β1 5 ng/ml, negative control 0.4+0.01
[7] = 6 hour time point, non-activated cultures 0.1+0.007
[8] = 6 hours after activation, negative control 0.1+0.01

NH2_Arg-Glu-Thr-Val-Glu-Arg-Glu-Lys-Glu_COOH (H-RETVEREKE-OH) [HP6-14]
Antiviral efficacy (minimal compound concentration protecting 50% of the cells from death) [1]: 0.78 µg/mL
Titre of induced interferon (inverse to the maximal dilution protecting 50% of the cells) [1]: 1280 U/ml
Antiviral efficacy (minimal compound concentration protecting 50% of the cells from death) [2]: 0.49 µg/mL
Titre of induced interferon (inverse to the maximal dilution protecting 50% of the cells) [2]: 2048 U/ml
Antiviral efficacy (minimal compound concentration protecting 50% of the cells from death) [3]: 0.006 µg/mL
Titre of induced interferon (inverse to the maximal dilution protecting 50% of the cells) [3]: 163 840 U/ml

NH2_Gly-Glu-Lys-Lys-Arg-Arg-Glu-Thr-Val-Glu-Arg-Glu-Gly-Gly_COOH (H-GEKKRRETVEREGG-OH) [HP-V2]
Antiviral efficacy (minimal compound concentration protecting 50% of the cells from death) [1]: 0.78 µg/mL
Titre of induced interferon (inverse to the maximal dilution protecting 50% of the cells) [1]: 1280 U/ml
immunostimulatory activity compared with the activity of HEP-1 peptide ([1]; Table 1, PLC/PRF/5 cells): 4 times
Antiviral efficacy (minimal compound concentration protecting 50% of the cells from death) [2]: 7.8 µg/mL
Titre of induced interferon (inverse to the maximal dilution protecting 50% of the cells) [2]: 128 U/ml
Antiviral efficacy (minimal compound concentration protecting 50% of the cells from death) [3]: 0.0015 µg/mL
Titre of induced interferon (inverse to the maximal dilution protecting 50% of the cells) [3]: 655 360 U/ml
immunostimulatory activity compared with the activity of HEP-1 peptide ([3]; Table 3, Girardi Heart cells): the same
phospho-ERK1 normalized value (band intensity normalized to GAPDH) [4, 5]: 0.4+0.02
phospho-ERK2 normalized value (band intensity normalized to GAPDH) [4, 6]: 1.3+0.05
phospho-ERK2 normalized value (band intensity normalized to GAPDH) [4, 7]: 0.1+0.01
phospho-ERK1 normalized value (band intensity normalized to GAPDH) [4, 8]: 0.1+0.006

NH2_Thr-Glu-Lys-Lys-Arg-Arg-Glu-Thr-Val-Glu-Arg-Glu-Lys-Glu_COOH (H-TEKKRRETVEREKE-OH) [HEP-1]
Antiviral efficacy (minimal compound concentration protecting 50% of the cells from death) [1]: 3.0 µg/mL
Titre of induced interferon (inverse to the maximal dilution protecting 50% of the cells) [1]: 320 U/ml
Antiviral efficacy (minimal compound concentration protecting 50% of the cells from death) [2]: 3.9 µg/mL
Titre of induced interferon (inverse to the maximal dilution protecting 50% of the cells) [2]: 256 U/ml
Antiviral efficacy (minimal compound concentration protecting 50% of the cells from death) [3]: 0.0015 µg/mL
Titre of induced interferon (inverse to the maximal dilution protecting 50% of the cells) [3]: 655 360 U/ml

NH2_Thr-Glu-Lys-Lys-Arg COOH (H-TEKKR-OH) [HP1-5]
Antiviral efficacy (minimal compound concentration protecting 50% of the cells from death) [1]: 1.6 µg/mL
Titre of induced interferon (inverse to the maximal dilution protecting 50% of the cells) [1]: 640 U/ml
Antiviral efficacy (minimal compound concentration protecting 50% of the cells from death) [2]: 0.49 µg/mL
Titre of induced interferon (inverse to the maximal dilution protecting 50% of the cells) [2]: 2048 U/ml
Antiviral efficacy (minimal compound concentration protecting 50% of the cells from death) [3]: 0.0015 µg/mL
Titre of induced interferon (inverse to the maximal dilution protecting 50% of the cells) [3]: 655 360 U/ml

TGF-β1: cytokine TGF-β1 (positive control)
phospho-ERK1 normalized value (band intensity normalized to GAPDH) [4, 5]: 0.5+0.02
phospho-ERK2 normalized value (band intensity normalized to GAPDH) [4, 6]: 1.9+0.1
phospho-ERK2 normalized value (band intensity normalized to GAPDH) [4, 7]: 0.35+0.02
phospho-ERK1 normalized value (band intensity normalized to GAPDH) [4, 8]: 0.3+0.02
